Broadly, the IC50 is the concentration needed to halve the response being measured. Broadly, the melting point is the temperature, or range, at which the solid turns liquid.

Data on 25 molecules can be found in patent US9296732B2, “Substituted benzamides and their uses” (The Board of Trustees of the Leland Stanford Junior …, priority 2012, dated 2016).

The test system of the first data set is RCC4. As to the kind of experiment: XTT cell viability assay in RCC4 parental (VHL-deficient) cells. Format: cell-based. To be noted: Homo sapiens, 96 h, four days with drug, second TABLE 1 (Examples 39-55). How it is done: (§1) RCC4 parental and RCC4 with VHL-reintroduced (RCC4/VHL), SN12C and SN12C-CSCG-VHL shRNA were maintained in DMEM supplemented with 10% FCS.
(§2) For 2,3-bis[2-methoxy-4-nitro-5-sulfophenyl]-2H-tetrazolium-5-carboxanilide (XTT) assays, five thousand cells were plated in 96-well plates. The next day, vehicle (DMSO) or drug was added by serial dilution. Four days later, media were aspirated, XTT solution (0.3 mg/ml of XTT (Sigma), 2.65 mg/ml N-methyl dibenxopyrazine methyl sulfate (Simga) in phenol red-free media) was added, and the plates were incubated at 37° C. for 1-2 hours. Metabolism of XTT was quantified by measuring the absorbance at 450 nm. IC50s were calculated using linear interpolation. For clonogenic survival assays, three hundred cells were plated per 60 mm tissue culture dish. The cells were allowed to attach overnight and then treated with vehicle or drug for 14 days. Colonies were fixed and stained with crystal violet (0.1% crystal violet in 95% ethanol). All conditions were measured in triplicate and each experiment was done in duplicate or triplicate. To determine necrosis, cells were treated with drug for a given time point. Media and cells were collected, centrifugated, and resuspended in 0.4% trypan blue (Invitrogen). Live and dead cells were counted on a hematocytometer.
(§3) The designation A reflects an IC50 of <1 nM; B reflects an IC50 ranging from 1 to 20 nM; and C is an IC50 of >20 nM. The designation “a” reflects a ratio of RCC4/RCC-VHL+ ranging from 1 to ≦10; “b” reflects from 10 to ≦100; “c” reflects a ratio of >100. Compounds 1-29 have an IC50 value of ≦10 μM when tested in the above assay.
In general terms: Tetrazolium dyes change colour on reduction, which living cells bring about.
As for `Cc1oc(-c2ccc(C(=O)NCc3cccnc3)cc2)nc1CS(=O)(=O)[C@H]1CC[C@H](N2CCCCC2)C1` [Example 49], the concentration for half-maximal inhibition (IC50) is below 1 nM. The same measure, in the same setting: the value for `Cc1oc(-c2ccc(C(=O)NCc3cccnc3)cc2)nc1CS(=O)(=O)C1CCN(C2CCCCC2)CC1` [Example 55] was below 1 nM.

The data set is the same for the next values; noted with them: four days with drug, second TABLE 1 (Examples 39-55).
In the case of `Cc1oc(-c2ccc(C(=O)NCc3cccnc3)cc2)nc1CS(=O)(=O)[C@H]1CC[C@@H](N)CC1` [Example 41, 4-(4-(((1s,4s)-4-aminocyclohexylsulfonyl)methyl)-5-methyloxazol-2-yl)-N-(pyridin-3-ylmethyl)benzamide], the IC50 is above 20 nM.

For a further data set, the system named is RCC4/VHL. Kind of data set: XTT cell viability assay, RCC4 with VHL-reintroduced (RCC4/VHL) versus RCC4, selectivity ratio. Format: cell-based. To be noted: first TABLE 1 (II series). How it is done:
as §1, §2, §3
`O=C(Nc1cccnc1)c1ccc(CNS(=O)(=O)c2cccnc2)cc1` [II-1, N-(3-Pyridinyl)-4-{[(3-pyridylsulfonyl)amino]methyl}benzamide]: the “Ratio = IC50RCC4/VHL/IC50RCC4” value was “a (a ratio of RCC4/RCC-VHL+ ranging from 1 to ≦10)”. Still for that read-out and setting: the value for `O=C(Nc1cccnc1)c1ccc(CNS(=O)(=O)c2ccc(Oc3ccccc3)nc2)cc1` [II-3, 4-({[(6-Phenoxy-3-pyridinyl)sulfonyl]amino}methyl)-N-(3-pyridinyl)benzamide] was “a (a ratio of RCC4/RCC-VHL+ ranging from 1 to ≦10)”. Regarding `O=C(Nc1cccnc1)c1ccc(CNS(=O)(=O)c2cccs2)cc1` [II-4, N-(3-Pyridinyl)-4-{[(2-thienylsulfonyl)amino]methyl}benzamide], the “Ratio = IC50RCC4/VHL/IC50RCC4” value was “a (a ratio of RCC4/RCC-VHL+ ranging from 1 to ≦10)”. The same measure, in the same setting: the result for `O=C(Nc1cccnc1)c1ccc(CNS(=O)(=O)c2ccsc2)cc1` [II-5, N-(3-Pyridinyl)-4-{[(3-thienylsulfonyl)amino]methyl}benzamide] reads “a (a ratio of RCC4/RCC-VHL+ ranging from 1 to ≦10)”; that for `O=C(Nc1cccnc1)c1ccc(CNS(=O)(=O)c2ccco2)cc1` [II-8, N-(3-Pyridinyl)-4-{[(2-furanylsulfonyl)amino]methyl}benzamide], “a (a ratio of RCC4/RCC-VHL+ ranging from 1 to ≦10)”.

The data set is the same for the next values; noted with them: second TABLE 1 (Examples 39-55).
On to `Cc1oc(-c2ccc(C(=O)NCc3cccnc3)cc2)nc1CS(=O)(=O)C1CCNCC1` [Example 39, 4-(5-Methyl-4-((piperidin-4-ylsulfonyl)methyl)oxazol-2-yl)-N-(pyridin-3-ylmethyl)benzamide], for which the “Ratio (IC50 RCC4 Proficient VHL)/IC50 RCC4 Deficient VHL)” value is “b (from 10 to ≦100)”.

Turning to `Cc1oc(-c2ccc(C(=O)NCc3cccnc3)cc2)nc1CS(=O)(=O)C1CCN(C)CC1` [Example 40, 4-(5-Methyl-4-((1-methylpiperidin-4-ylsulfonyl)methyl)oxazol-2-yl)-N-(pyridin-3-ylmethyl)benzamide], the “Ratio (IC50 RCC4 Proficient VHL)/IC50 RCC4 Deficient VHL)” value is “b (from 10 to ≦100)”. Same read-out and setting: the value for `Cc1oc(-c2ccc(C(=O)NCc3cccnc3)cc2)nc1CS(=O)(=O)[C@H]1CC[C@@H](N)CC1` [Example 41, 4-(4-(((1s,4s)-4-aminocyclohexylsulfonyl)methyl)-5-methyloxazol-2-yl)-N-(pyridin-3-ylmethyl)benzamide] was “b (from 10 to ≦100)”; that for `Cc1oc(-c2ccc(C(=O)NCc3cccnc3)cc2)nc1CS(=O)(=O)[C@H]1CC[C@@H](N2CCCC2)CC1` [Example 42] was “b (from 10 to ≦100)”.

Take `Cc1oc(-c2ccc(C(=O)NCc3cccnc3)cc2)nc1CS(=O)(=O)[C@H]1CC[C@@H](N2CCCCC2)CC1` [Example 43]: the “Ratio (IC50 RCC4 Proficient VHL)/IC50 RCC4 Deficient VHL)” value is listed as “b (from 10 to ≦100)”. On the same count and under the same terms, the value for `Cc1oc(-c2ccc(C(=O)NCc3cccnc3)cc2)nc1CS(=O)(=O)[C@H]1CC[C@H](N)CC1` [Example 44, 4-(4-[[(4-Aminocyclohexane)sulfonyl]methyl]-5-methyl-1,3-oxazol-2-yl)-N-(pyridin-3-ylmethyl)benzamide] was “b (from 10 to ≦100)”; that for `Cc1oc(-c2ccc(C(=O)NCc3cccnc3)cc2)nc1CS(=O)(=O)[C@H]1CC[C@H](N2CCCC2)CC1` [Example 45] was “b (from 10 to ≦100)”; that for `Cc1oc(-c2ccc(C(=O)NCc3cccnc3)cc2)nc1CS(=O)(=O)[C@H]1CC[C@H](N2CCCCC2)CC1` [Example 46] was “b (from 10 to ≦100)”. Still for that read-out and setting: the result for `Cc1oc(-c2ccc(C(=O)NCc3cccnc3)cc2)nc1CS(=O)(=O)[C@H]1CC[C@H](N)C1` [Example 47] reads “b (from 10 to ≦100)”. On the same count and under the same terms, the value for `Cc1oc(-c2ccc(C(=O)NCc3cccnc3)cc2)nc1CS(=O)(=O)[C@H]1CC[C@H](N2CCCC2)C1` [Example 48] was “b (from 10 to ≦100)”; that for `Cc1oc(-c2ccc(C(=O)NCc3cccnc3)cc2)nc1CS(=O)(=O)[C@H]1CC[C@H](N2CCCCC2)C1` [Example 49] was “b (from 10 to ≦100)”. In the case of `Cc1oc(-c2ccc(C(=O)NCc3cccnc3)cc2)nc1CS(=O)(=O)[C@@H]1CC[C@H](N)C1` [Example 50], the “Ratio (IC50 RCC4 Proficient VHL)/IC50 RCC4 Deficient VHL)” value is listed as “b (from 10 to ≦100)”.

In the case of `Cc1oc(-c2ccc(C(=O)NCc3cccnc3)cc2)nc1CS(=O)(=O)[C@@H]1CC[C@H](N2CCCC2)C1` [Example 51], the “Ratio (IC50 RCC4 Proficient VHL)/IC50 RCC4 Deficient VHL)” value is reported as “b (from 10 to ≦100)”. On the same count and under the same terms, the value for `Cc1oc(-c2ccc(C(=O)NCc3cccnc3)cc2)nc1CS(=O)(=O)[C@@H]1CC[C@H](N2CCCCC2)C1` [Example 52] was “a (a ratio of RCC4/RCC-VHL+ ranging from 1 to ≦10)”; that for `Cc1oc(-c2ccc(C(=O)NCc3cccnc3)cc2)nc1CS(=O)(=O)C1CCN(CC(C)C)CC1` [Example 53, 4-(5-methyl-4-[[1-(2-methylpropyl)piperidine-4-sulfonyl]methyl]-1,3-oxazol-2-yl)-N-(pyridin-3-ylmethyl)benzamide] was “a (a ratio of RCC4/RCC-VHL+ ranging from 1 to ≦10)”; that for `Cc1oc(-c2ccc(C(=O)NCc3cccnc3)cc2)nc1CS(=O)(=O)C1CCN(C2CCCC2)CC1` [Example 54] was “b (from 10 to ≦100)”. In the case of `Cc1oc(-c2ccc(C(=O)NCc3cccnc3)cc2)nc1CS(=O)(=O)C1CCN(C2CCCCC2)CC1` [Example 55], the “Ratio (IC50 RCC4 Proficient VHL)/IC50 RCC4 Deficient VHL)” value is reported as “a (a ratio of RCC4/RCC-VHL+ ranging from 1 to ≦10)”.

System in another data set: not given
Assay: not given
Settings: not given
Molecule `O=C(Nc1cccnc1)c1ccc(CNS(=O)(=O)c2ccc(Cl)nc2)cc1` [II-2, 4-({[(6-Chloro-3-pyridinyl)sulfonyl]amino}methyl)-N-(3-pyridinyl)benzamide] had a melting point of 226 to 228 °C. With `Cc1ncc(S(=O)(=O)NCc2ccc(C(=O)Nc3cccnc3)cc2)n1C` [II-6, 4-({[(1,2-Dimethyl-1H-imidazol-5-yl)sulfonyl]amino}methyl)-N-(3-pyridinyl)benzamide], the melting point fell in the range of 238 to 240 °C. Same read-out and setting: the result for `O=C(Nc1cccnc1)c1ccc(CNS(=O)(=O)c2nnc[nH]2)cc1` [II-7, N-(3-pyridinyl)-4-{[(4H-1,2,4-triazol-3-ylsulfonyl)amino]methyl}benzamide] reads 266 to 269 °C.
